Counter-ions that a name gives are not always drawn. Each block holds one compound with its values, some of them ahead of it.
Biological target: T1, recombinant guanylate cyclase reporter cell line (Rattus norvegicus, UniProt P19686+P20595)
T1 construct: expressed in transfected cells; host or cells: recombinant reporter cell line
T1 sequence (P19686 1-690): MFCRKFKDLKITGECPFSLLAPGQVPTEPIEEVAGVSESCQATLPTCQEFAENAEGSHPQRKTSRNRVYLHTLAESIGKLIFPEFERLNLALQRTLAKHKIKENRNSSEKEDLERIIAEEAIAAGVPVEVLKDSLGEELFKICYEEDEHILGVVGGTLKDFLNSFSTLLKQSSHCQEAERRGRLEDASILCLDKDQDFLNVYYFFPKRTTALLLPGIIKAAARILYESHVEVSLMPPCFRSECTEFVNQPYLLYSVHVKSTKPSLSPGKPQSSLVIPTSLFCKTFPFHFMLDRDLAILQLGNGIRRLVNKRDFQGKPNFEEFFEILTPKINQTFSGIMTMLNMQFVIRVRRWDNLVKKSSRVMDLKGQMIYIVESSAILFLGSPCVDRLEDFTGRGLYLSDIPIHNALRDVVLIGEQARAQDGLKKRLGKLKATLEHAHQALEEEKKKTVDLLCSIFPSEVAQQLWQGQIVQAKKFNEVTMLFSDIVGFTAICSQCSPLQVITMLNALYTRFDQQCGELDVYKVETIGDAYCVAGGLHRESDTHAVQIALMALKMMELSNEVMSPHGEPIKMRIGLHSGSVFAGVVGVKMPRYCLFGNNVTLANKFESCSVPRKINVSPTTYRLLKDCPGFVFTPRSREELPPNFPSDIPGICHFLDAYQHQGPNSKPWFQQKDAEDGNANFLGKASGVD
T1 sequence (P20595 1-619): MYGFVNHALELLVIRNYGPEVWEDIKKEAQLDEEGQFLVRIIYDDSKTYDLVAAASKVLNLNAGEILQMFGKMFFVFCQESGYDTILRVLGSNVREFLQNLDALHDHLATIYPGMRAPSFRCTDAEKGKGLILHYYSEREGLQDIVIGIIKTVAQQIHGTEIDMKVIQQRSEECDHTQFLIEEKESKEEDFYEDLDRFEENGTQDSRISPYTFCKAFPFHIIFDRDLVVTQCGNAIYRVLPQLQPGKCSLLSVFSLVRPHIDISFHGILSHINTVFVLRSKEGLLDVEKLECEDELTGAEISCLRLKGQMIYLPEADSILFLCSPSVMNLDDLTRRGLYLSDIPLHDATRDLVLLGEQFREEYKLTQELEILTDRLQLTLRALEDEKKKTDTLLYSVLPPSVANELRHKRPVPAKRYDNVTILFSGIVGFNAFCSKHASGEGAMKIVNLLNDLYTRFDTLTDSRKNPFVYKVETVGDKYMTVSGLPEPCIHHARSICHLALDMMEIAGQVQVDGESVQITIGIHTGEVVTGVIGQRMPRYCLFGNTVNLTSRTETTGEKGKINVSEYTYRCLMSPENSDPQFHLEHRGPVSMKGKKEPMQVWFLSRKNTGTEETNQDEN
Experiment: Action on recombinant guanylate cyclase reporter cell line
Format: cell-based
Details: in some cases mean values from individual determinations
Summary of the method: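 Compounds are tested on whole cells carrying a guanylate cyclase reporter construct. The lowest concentration giving an effect is recorded as the MEC.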

SMILES: COCC(CN)NC(=O)c1c(C)nc2c(OCc3c(F)cccc3F)cccn12 (single isomer, unassigned) [Example 122, ent-N-(1-Amino-3-methoxypropan-2-yl)-8-[(2,6-difluorobenzyl)oxy]-2-methylimidazo[1,2-a]-pyridine-3-carboxamide ditrifluoroacetate]
MEC (minimal effective concentration): 1.00 µM

SMILES: Cc1nc2c(OCC3CCCCC3)cccn2c1C(=O)NC(CN)c1ccc(F)c(F)c1 (single isomer, unassigned) [Example 179, ent-N-[2-Amino-1-(3,4-difluorophenyl)ethyl]-8-(cyclohexylmethoxy)-2-methylimidazo[1,2-a]-pyridine-3-carboxamide]
MEC (minimal effective concentration): 1.00 µM

SMILES: CCCC(C)(N)CNC(=O)c1c(C)nc2c(OCc3c(F)cccc3F)cc(C)cn12 (single isomer, unassigned) [Example 234, ent-N-(2-Amino-2-methylpentyl)-8-[(2,6-difluorobenzyl)oxy]-2,6-dimethylimidazo[1,2-a]pyridine-3-carboxamide]
MEC (minimal effective concentration): 0.03 µM

SMILES: Cc1nc2c(OCc3c(F)cccc3F)cc(Cl)cn2c1C(=O)NCC(N)CC(F)(F)F (single isomer, unassigned) [Example 193, ent-N-(2-Amino-4,4,4-trifluorobutyl)-6-chloro-8-[(2,6-difluorobenzyl)oxy]-2-methylimidazo[1,2-a]pyridine-3-carboxamide]
MEC (minimal effective concentration): 1.00 µM

SMILES: Cc1nc2c(OCc3c(F)cccc3F)cccn2c1C(=O)NC1CCNc2ccccc21 (racemic) [Example 50, rac-8-[(2,6-Difluorobenzyl)oxy]-2-methyl-N-(1,2,3,4-tetrahydroquinolin-4-yl)imidazo[1,2-a]-pyridine-3-carboxamide]
MEC (minimal effective concentration): 0.03 µM

SMILES: Cc1nc2c(OCc3c(F)cccc3F)cccn2c1C(=O)NCC(C)N (racemic) [Example 34, rac-N-(2-aminopropyl)-8-[(2,6-difluorobenzyl)-oxy]-2-methyl-imidazo[1,2-a]pyridine-3-carboxamide dihydrochloride]
MEC (minimal effective concentration): 1.00 µM

SMILES: Cc1nc2c(OCc3c(F)cccc3F)cccn2c1C(=O)NC(C)[C@H](C)N (single isomer, unassigned) [Example 175]
MEC (minimal effective concentration): 1.00 µM

SMILES: Cc1nc2c(OCc3c(F)cccc3F)cccn2c1C(=O)N[C@H]1CCNC1 [Example 61, 8-[(2,6-Difluorobenzyl)oxy]-2-methyl-N-[(3S)-pyrrolidin-3-yl]imidazo[1,2-a]pyridine-3-carboxamide]
MEC (minimal effective concentration): 3.00 µM

SMILES: Cc1nc2c(OCc3c(F)cccc3F)cccn2c1C(=O)NC1CCNc2ccc(F)cc21 (single isomer, unassigned; ent-8) [Example 105, ent-8-[(2,6-difluorobenzyl)oxy]-N-(6-fluoro-1,2,3,4-tetrahydroquinolin-4-yl)-2-methylimidazo[1,2-a]pyridine-3-carboxamide]
MEC (minimal effective concentration): 0.30 µM

SMILES: Cc1nc2c(OCc3c(F)cccc3F)cccn2c1C(=O)NCC(C)(C)N [Example 72, N-(2-Amino-2-methylpropyl)-8-[(2,6-difluorobenzyl)oxy]-2-methylimidazo[1,2-a]pyridine-3-carboxamide]
MEC (minimal effective concentration): 0.30 µM

SMILES: Cc1nc2c(OCc3c(F)cccc3F)cc(Cl)cn2c1C(=O)NCCN [Example 36, N-(2-aminoethyl)-6-chloro-8-[(2,6-difluorobenzyl)oxy]-2-methylimidazo[1,2-a]-pyridine-3-carboxamide]
MEC (minimal effective concentration): 1.00 µM

SMILES: Cc1nc2c(OCc3c(F)cccc3F)cccn2c1C(=O)NC(CN)c1ccc(Cl)cc1 (single isomer, unassigned; enantiomer b) [Example 15, ent-N-[2-Amino-1-(4-chlorophenyl)ethyl]-8-[(2,6-difluorobenzyl)oxy]-2-methylimidazo[1,2-a]-pyridine-3-carboxamide (Enantiomer B)]
MEC (minimal effective concentration): 0.53 µM

More lines, now with the values ahead:

MEC (minimal effective concentration): 0.30 µM
SMILES: Cc1cc(OCc2c(F)cccc2F)c2nc(C)c(C(=O)NC3CC3N)n2c1 (racemic) [Example 330, rac-N-(2-aminocyclopropyl)-8-[(2,6-difluorobenzyl)oxy]-2,6-dimethylimidazo[1,2-a]pyridine-3-carboxamide]

MEC (minimal effective concentration): 0.10 µM
SMILES: Cc1cc(OCc2c(F)cccc2F)c2nc(C)c(C(=O)NCC(C)(N)Cc3ccccn3)n2c1 (racemic) [Example 297, rac-N-[2-amino-2-methyl-3-(pyridin-2-yl)propyl]-8-[(2,6-difluorobenzyl)oxy]-2,6-dimethylimidazo[1,2-a]pyridine-3-carboxamide]

MEC (minimal effective concentration): 1.00 µM
SMILES: CCCC(C)(N)CNC(=O)c1c(C)nc2c(OCc3ccccc3Cl)cc(C)cn12 (racemic) [Example 343, rac-N-(2-amino-2-methylpentyl)-8-[(2-chlorobenzyl)oxy]-2,6-dimethylimidazo[1,2-a]pyridine-3-carboxamide]

MEC (minimal effective concentration): 0.30 µM
SMILES: Cc1cc(OCc2c(F)cccc2F)c2nc(C)c(C(=O)NC3CC(C)(C)C3N)n2c1 (mixture of isomers) [Example 358, N-(2-amino-3,3-dimethylcyclobutyl)-8-[(2,6-difluorobenzyl)oxy]-2,6-dimethylimidazo[1,2-a]pyridine-3-carboxamide Formate (Isomer Mixture)]

MEC (minimal effective concentration): 0.30 µM
SMILES: Cc1cc(OCc2c(F)cccc2F)c2nc(C)c(C(=O)NC(CN)c3ccc4c(c3)OCO4)n2c1 (racemic) [Example 381, rac-N-[2-amino-1-(1,3-benzodioxol-5-yl)ethyl]-8-[(2,6-difluorobenzyl)oxy]-2,6-dimethylimidazo[1,2-a]pyridine-3-carboxamide]

MEC (minimal effective concentration): 3.00 µM
SMILES: Cc1cc(OCc2c(F)cccc2F)c2nc(C)c(C(=O)NCC(N)c3cccc(OC(F)F)c3)n2c1 (racemic) [Example 375, rac-N-{2-amino-2-[3-(difluoromethoxy)phenyl]ethyl}-8-[(2,6-difluorobenzyl)oxy]-2,6-dimethylimidazo[1,2-a]pyridine-3-carboxamide]

MEC (minimal effective concentration): 5.5 µM
SMILES: Cc1nc2c(OCc3c(F)cccc3F)cccn2c1C(=O)NCC(C)(N)CCO (single isomer, unassigned; enantiomer a) [Example 272, ent-N-(2-Amino-4-hydroxy-2-methylbutyl)-8-[(2,6-difluorobenzyl)oxy]-2-methylimidazo[1,2-a]-pyridine-3-carboxamide (Enantiomer A)]

MEC (minimal effective concentration): 0.03 µM
SMILES: Cc1cc(OCc2c(F)cccc2F)c2nc(C)c(C(=O)NCC(C)(N)C3CC3)n2c1 (racemic) [Example 259, rac-N-(2-Amino-2-cyclopropylpropyl)-8-[(2,6-difluorobenzyl)oxy]-2,6-dimethylimidazo[1,2-a]-pyridine-3-carboxamide]

MEC (minimal effective concentration): 3.00 µM
SMILES: Cc1cc(OCc2c(F)cccc2F)c2nc(C)c(C(=O)NCC(N)c3cccc(OC(F)(F)F)c3)n2c1 (racemic) [Example 377, rac-N-{2-amino-2-[3-(trifluoromethoxy)phenyl]ethyl}-8-[(2,6-difluorobenzyl)oxy]-2,6-dimethylimidazo[1,2-a]pyridine-3-carboxamide]

MEC (minimal effective concentration): 1.00 µM
SMILES: COc1cccc(C(N)CNC(=O)c2c(C)nc3c(OCc4c(F)cccc4F)cc(C)cn23)c1 (racemic) [Example 378, rac-N-[2-amino-2-(3-methoxyphenyl)ethyl]-8-[(2,6-difluorobenzyl)oxy]-2,6-dimethylimidazo[1,2-a]pyridine-3-carboxamide]
